The nature of assay [1]: Binding affinity to 5'-dabcyl/3'-fluorescein labeled double stranded DNA (unknown origin) assessed as change in melting temperature at 10 uM by fluorescence assay.
The species entered for assay [2] is Homo sapiens. Kind of assay: Binding affinity to 5'-dabcyl/3'-fluorescein labeled human telomeric sequence G-quadruplex DNA assessed as change in melting temperature at 10 uM by fluorescence assay.
Assay [3] is described as follows: Binding affinity to 5'-dabcyl/3'-fluorescein labeled cKit G-quadruplex DNA (unknown origin) assessed as change in melting temperature at 10 uM by fluorescence assay.
For assay [4], the target named is DNA topoisomerase 2-alpha (Homo sapiens, UniProt P11388). Kind of assay: Inhibition of human topoisomerase 2alpha-mediated kinetoplast DNA decatenation after 60 mins by ethidium bromide staining based agarose gel electrophoresis.
Assay [5] can be described thus: Inhibition of Escherichia coli DNA topoisomerase 4 decatenation activity using kinetoplast DNA as substrate after 60 mins by ethidium bromide staining based agarose gel electrophoresis.
The test system of assay [6] is HeLa. Kind of assay: Cytotoxicity against human HeLa cells after 72 hrs by MTT assay. It counts as functional, cell-based. On the technique in general: Tetrazolium assays rely on reduction of a dye to a coloured formazan, in cell work by metabolically active cells.
Assay [7] relates to MCF7. Kind of assay: Cytotoxicity against human MCF7 cells after 72 hrs by MTT assay. The assay is classed as functional, cell-based. The settings on record: MCF7, 72 h.
Assay [8] relates to Escherichia coli. Kind of assay: Binding affinity to Escherichia coli supercoiled pBR322 DNA assessed as DNA intercalation by measuring DNA unwinding up to 100 uM measured after 1 hr by ethidium bromide staining based agarose gel electrophoresis.
Assay [9] relates to HeLa. Kind of assay: Potency index, ratio of ametantrone IC50 to compound IC50 for human HeLa cells. The assay is classed as functional.
The test system of assay [10] is MCF7. Kind of assay: Potency index, ratio of ametantrone IC50 to compound IC50 for human MCF7 cells. It counts as functional.
Assay [11] is filed under the species Homo sapiens. Kind of assay: Binding affinity to human telomeric 22 G-quadruplex DNA assessed as compound concentration required for 30% displacement of thiazole orange from telomeric 22 G-quadruplex DNA by fluorescent intercalator displacement assay.
Assay [12] in a line: Binding affinity to cKit G-quadruplex DNA (unknown origin) assessed as compound concentration required for 30% displacement of thiazole orange from cKit G-quadruplex DNA by fluorescent intercalator displacement assay.
Assay [13] has as its system Escherichia coli. Kind of assay: Binding affinity to Escherichia coli supercoiled pBR322 DNA assessed as DNA intercalation by measuring DNA unwinding at 0.1 to 10 uM measured after 1 hr by ethidium bromide staining based agarose gel electrophoresis.
A short description of assay [14]: Binding affinity to double stranded DNA (unknown origin) assessed as compound concentration required for 30% displacement of thiazole orange from double stranded DNA by fluorescent intercalator displacement assay.
The test system of assay [15] is Escherichia coli. Kind of assay: Binding affinity to Escherichia coli supercoiled pBR322 DNA assessed as DNA intercalation by measuring DNA unwinding at 100 uM measured after 1 hr by ethidium bromide staining based agarose gel electrophoresis.
The subject of assay [16] is Escherichia coli. Kind of assay: Inhibition of Escherichia coli DNA topoisomerase 4 decatenation activity up to 100 uM using kinetoplast DNA as substrate after 60 mins by ethidium bromide staining based agarose gel electrophoresis.
Assay [17] relates to Escherichia coli. Kind of assay: Binding affinity to Escherichia coli supercoiled pBR322 DNA assessed as DNA intercalation by measuring DNA unwinding at 10 uM measured after 1 hr by ethidium bromide staining based agarose gel electrophoresis.

Calls of active or inactive are those of the source. The calls are words filed in the database; no cut-off is given here.

The ΔTm is the shift of the melting midpoint relative to a reference. As usually defined, the IC50 is the concentration needed to halve the response being measured.

Sequence of DNA topoisomerase 2-alpha (P11388 whole entry): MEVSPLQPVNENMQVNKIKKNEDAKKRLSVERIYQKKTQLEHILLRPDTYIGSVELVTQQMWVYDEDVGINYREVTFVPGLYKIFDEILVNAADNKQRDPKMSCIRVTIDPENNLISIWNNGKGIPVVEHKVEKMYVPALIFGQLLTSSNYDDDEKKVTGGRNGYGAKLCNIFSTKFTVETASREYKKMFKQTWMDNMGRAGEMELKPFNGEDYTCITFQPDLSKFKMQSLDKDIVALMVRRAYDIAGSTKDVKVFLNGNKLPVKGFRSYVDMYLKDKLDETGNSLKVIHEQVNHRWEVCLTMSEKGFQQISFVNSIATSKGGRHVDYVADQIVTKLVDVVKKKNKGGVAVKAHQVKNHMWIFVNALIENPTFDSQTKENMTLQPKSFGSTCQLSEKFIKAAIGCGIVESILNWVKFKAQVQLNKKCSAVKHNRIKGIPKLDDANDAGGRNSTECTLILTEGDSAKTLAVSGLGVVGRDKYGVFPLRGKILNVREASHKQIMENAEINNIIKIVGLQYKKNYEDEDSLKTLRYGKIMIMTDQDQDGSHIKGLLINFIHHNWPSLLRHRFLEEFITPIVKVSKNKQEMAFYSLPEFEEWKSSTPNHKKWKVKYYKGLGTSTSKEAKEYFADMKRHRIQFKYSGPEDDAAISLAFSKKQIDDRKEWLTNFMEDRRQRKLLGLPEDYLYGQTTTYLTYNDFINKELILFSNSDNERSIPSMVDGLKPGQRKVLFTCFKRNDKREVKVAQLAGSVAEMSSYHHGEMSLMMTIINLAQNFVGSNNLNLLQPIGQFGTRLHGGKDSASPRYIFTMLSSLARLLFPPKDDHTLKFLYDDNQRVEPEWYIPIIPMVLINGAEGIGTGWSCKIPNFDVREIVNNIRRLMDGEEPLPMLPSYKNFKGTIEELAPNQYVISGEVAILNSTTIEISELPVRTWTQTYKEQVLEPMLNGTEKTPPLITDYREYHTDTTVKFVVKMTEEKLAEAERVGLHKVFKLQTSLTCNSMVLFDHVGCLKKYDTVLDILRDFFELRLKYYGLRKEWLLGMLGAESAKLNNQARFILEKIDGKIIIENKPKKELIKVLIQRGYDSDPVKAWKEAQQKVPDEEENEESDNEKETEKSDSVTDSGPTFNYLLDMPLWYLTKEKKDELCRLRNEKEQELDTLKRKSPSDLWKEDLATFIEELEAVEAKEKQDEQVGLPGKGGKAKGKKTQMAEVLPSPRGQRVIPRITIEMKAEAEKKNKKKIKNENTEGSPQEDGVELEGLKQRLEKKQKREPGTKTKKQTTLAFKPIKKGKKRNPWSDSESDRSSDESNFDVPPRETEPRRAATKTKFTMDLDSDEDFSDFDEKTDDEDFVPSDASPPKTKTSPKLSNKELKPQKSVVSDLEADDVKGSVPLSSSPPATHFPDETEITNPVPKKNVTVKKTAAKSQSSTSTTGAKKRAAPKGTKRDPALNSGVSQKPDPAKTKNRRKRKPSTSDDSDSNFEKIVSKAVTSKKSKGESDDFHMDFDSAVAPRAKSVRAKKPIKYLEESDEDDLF

With `CCN(CC)CCCCNC(=O)c1ccc2nnc3c(c2c1)C(=O)c1ccccc1-3`, the ΔTm in assay [1] worked out at 0.53 °C; in the assay filed under Homo sapiens [2], 3.77 °C; in [3], 3.01 °C.
Turning to `O=C1c2ccccc2-c2nnc3ccccc3c21`, the IC50 was over 100 µM in assay [4], over 100 µM in [5], 0.57 µM in the assay with HeLa [6] and 0.81 µM with MCF7 [7]. The result in the assay with Escherichia coli [8] was inactive.
For `O=C1c2ccccc2C(=O)c2c(NCCNCCO)ccc(NCCNCCO)c21` [AMETANTRONE], the IC50 in the assay with HeLa [6] was determined as 0.9 µM; in the assay with MCF7 [7] it was 0.51 µM.
On to `O=C(NCCCCN1CCOCC1)c1ccc2nnc3c(c2c1)C(=O)c1ccccc1-3`, for which the deltaTm result in [1] was “inactive”. The ΔTm is 4.82 °C in the assay listed under Homo sapiens [2] and 4.37 °C in [3].
In the case of `CN(C)CCCCNC(=O)c1ccc2nnc3c(c2c1)C(=O)c1ccccc1-3`, the ΔTm in [1] was determined as 2.7 °C; in the assay filed under Homo sapiens [2], 9.35 °C; in assay [3] it was 12.4 °C. The IC50 in assay [4] is 7.08 µM; in assay [5], over 100 µM; in the assay on HeLa [6] it was 0.045 µM; in the assay on MCF7 [7] it was 0.085 µM. Further, the outcome in the assay on Escherichia coli [8] was inactive. The “Ratio IC50” value in the assay with HeLa [9] is listed as 20; in the assay on MCF7 [10], 6.
With `COc1ccc2cc3[n+](cc2c1OC)CCc1cc2c(cc1-3)OCO2`, the results for the ΔTm (in assay [1]; in the assay listed under Homo sapiens [2]; in [3]) were 0.34 °C, 9.68 °C and 10.3 °C, respectively. In addition, the Activity (in the assay filed under Homo sapiens [11]; in assay [12]) was over 10 µM in each case.
With `COc1cccc2c1C(=O)c1c(O)c3c(c(O)c1C2=O)C[C@@](O)(C(=O)CO)C[C@@H]3O[C@H]1C[C@H](N)[C@H](O)[C@H](C)O1`, in the assay with Escherichia coli [13], the result was Active.
For `CN(C)CCCOc1ccc2c(ccc3c4c(nnc32)-c2ccccc2C4=O)c1`, the thermal shift (ΔTm) in [1] amounted to 0.85 °C; in the assay filed under Homo sapiens [2] it was 16.1 °C; in assay [3], 19.2 °C. The Activity in assay [14] turned out to be 7.81 µM; in the assay listed under Homo sapiens [11] it was 4.75 µM; in assay [12], 1.5 µM. Moreover, the IC50 in assay [4] is 52.9 µM; in assay [5] it was over 100 µM; in the assay on HeLa [6], 3.05 µM; in the assay with MCF7 [7], 6.75 µM. Also, the outcome in the assay with Escherichia coli [15] was Active.
As to `CN(C)CCCOc1ccc2ccc3c4c(nnc3c2c1)-c1ccccc1C4=O`, the ΔTm in assay [1] is 1.96 °C; in the assay filed under Homo sapiens [2] it was 20.8 °C; in [3], 23.1 °C. The Activity was found to be 4.06 µM in assay [14], 2.43 µM in the assay listed under Homo sapiens [11] and 0.95 µM in [12]. The IC50 in assay [4] was 29.1 µM; in [5], over 100 µM; in the assay with HeLa [6], 2.81 µM; in the assay on MCF7 [7] it was 9.79 µM. In addition, in the assay with Escherichia coli [15], the result was Active.
On to `CN(C)CCOc1ccc2c(ccc3c4c(nnc32)-c2ccccc2C4=O)c1`, for which the deltaTm entry in [1] is “inactive”. The values for the ΔTm (in the assay listed under Homo sapiens [2]; in assay [3]) were 5.69 °C and 9.18 °C, respectively. The Activity in assay [14] was determined as 16 µM; in assay [12], 2.08 µM. Also, the outcome in the assay listed under Homo sapiens [11] was inactive. In addition, the IC50 (in [4]; in assay [5]; in the assay with HeLa [6]; with MCF7 [7]) was over 100 µM each time. In the assay on Escherichia coli [15], the result was Active.
As to `CN(C)CCCNC(=O)c1ccc2nnc3c(c2c1)C(=O)c1ccccc1-3`, the ΔTm came to 1.95 °C in [1], 7.91 °C in the assay filed under Homo sapiens [2] and 8.5 °C in assay [3]. For the same compound, the IC50 in [4] was 4.88 µM; in assay [5], over 100 µM; in the assay on HeLa [6], 0.27 µM; in the assay with MCF7 [7], 0.17 µM. Moreover, the result in the assay on Escherichia coli [8] was inactive.
Consider `CN(C)CCNC(=O)c1ccc2nnc3c(c2c1)C(=O)c1ccccc1-3`, for which the results for the thermal shift (ΔTm) (in assay [1]; in the assay listed under Homo sapiens [2]; in assay [3]) were 1.19 °C, 5.95 °C and 6.8 °C, respectively. Further, the IC50 in assay [4] is 13.4 µM; in assay [5], over 100 µM; in the assay with HeLa [6] it was 0.35 µM; in the assay with MCF7 [7], 0.28 µM. Further, in the assay on Escherichia coli [8], the result was inactive.
In the case of `O=C(NCCCCN1CCCCC1)c1ccc2nnc3c(c2c1)C(=O)c1ccccc1-3`, the ΔTm was 0.9 °C in [1], 6.63 °C in the assay filed under Homo sapiens [2] and 5.42 °C in assay [3].
In [5], `CO[C@@H]1[C@@H](OC(N)=O)[C@@H](O)[C@H](Oc2ccc3c(O)c(NC(=O)c4ccc(O)c(CC=C(C)C)c4)c(=O)oc3c2C)OC1(C)C` [NOVOBIOCIN] came in with an IC50 of 63.4 µM.
With `CN(C)CCCn1c(=O)c2nc3ccccc3nc2c2ccccc21`, the Activity in [14] is 10.9 µM; in assay [12], 3.57 µM. Further, in the assay filed under Homo sapiens [11], the outcome was inactive.
Consider `CN(C)CCOc1ccc2ccc3c4c(nnc3c2c1)-c1ccccc1C4=O`, for which the ΔTm in assay [1] was found to be 5.27 °C; in the assay listed under Homo sapiens [2], 25.6 °C; in assay [3] it was 28 °C. In addition, the Activity in [14] was 1.36 µM; in the assay listed under Homo sapiens [11] it was 0.52 µM; in assay [12] it was 0.47 µM. In addition, the results for the IC50 (in assay [4]; in the assay with HeLa [6]; in the assay on MCF7 [7]) were 5.44 µM, 5.96 µM and 3.72 µM, respectively. The inhibition entry in the assay with Escherichia coli [16] is “inactive”. Also, the outcome in the assay on Escherichia coli [17] was Active.

The record behind these values is ChEMBL document CHEMBL4017447, “Indenocinnoline derivatives as G-quadruplex binders, topoisomerase IIα inhibitors and antiproliferative agents” (Bioorg Med Chem, 2017).
